Test results from patent publication US4264622A, “Tetrahydro-2H-benzo[c]pyrroles to inhibit prolactin secretion” (Eli Lilly and Company, priority 1980, dated 1981).
Structures can show the parent of a compound that is named as a salt.

System: mouse
Test: toxicity on intraperitoneal dosage in the mouse
Assay type: in vivo
Procedure: In using the compounds of this invention to inhibit prolactin secretion or to treat Parkinson's syndrome or for other pharmacologic action, a pharmaceutically active compound according to Formula I above, or a salt thereof with a pharmaceutically-acceptable acid, is administered to a subject suffering from Parkinsonism or in need of having their prolactin level reduced in an amount effective to alleviate some of the symptoms of Parkinsonism or to reduce an elevated prolactin level. Oral administration is preferred. If parenteral administration is used, the injection is preferably by the subcutaneous route using an appropriate pharmaceutical formulation. […] In particular, with intravenous or intramuscular administration, a water soluble pharmaceutically-acceptable salt is employed. For oral administration, a pharmaceutically active compound according to Formula I either as the free base or in the form of a salt thereof can also be mixed with standard pharmaceutical excipients and loaded into empty telescoping gelatin capsules or pressed into tablets. The oral dosage range is from about 0.01 to 10 mg/kg of mammalian weight and the parenteral dose range from about 0.0025 to 2.5 mg/kg of mammalian weight.

CCCN(CCC)C1CCc2c[nH]cc2C1 (racemic) [dl-5-di-n-propylamino-4,5,6,7-tetrahydro-2H-benzo[c]pyrrole maleate]
deaths (10-30 mg/kg): no deaths
deaths (fatal dosages) (100-300 mg/kg): fatal
